Some results are limits rather than exact numbers.

Experiment [1] in a line: Antimicrobial activity in the preparation examples. As to conditions: result line of the preparation example; no test germ named.
Experiment [2] deals with multiresistant S. aureus reference strain “Norddeutscher Stamm”. Nature of the experiment: Agar diffusion test according to Burkhardt against multiresistant S. aureus “Norddeutscher Stamm”. Conditions: for Inhibition halo: S. aureus “Norddeutscher Stamm”; for Size of inhibition halo: starting materials, S. aureus “Nord. Stamm”. Type of experiment: cell-based. On the procedure:
(§1) Methods: An agar diffusion test according to Burkhardt was performed (Burkhardt, F. (Ed.): Mikrobiologische Diagnostik, Georg-Thieme-Verlag Stuttgart, N.Y., 1992, p. 724). The test substances are applied to Sensi-Disc test plates (Becton Dickinson Microbiology Systems, Cockeysville, USA) in graduated concentrations. For testing, Mueller-Hinton II agar was employed in Stacker Petri dishes (Becton Dickinson Microbiology Systems, Cockeysville, USA). S. aureus strain ATCC 6538 was selected as a test strain. The seeding rate of this test strain was selected in such a way that densely arranged, nut non-confluent individual colonies developed after from 16 to 20 h of incubation. After drying the inoculated nutrient substrates, a maximum of 6 test plates is placed onto the agar surface with slight pressing. After 18+2 h of incubation at 36° C., the inhibition halos are measured. For internal quality control, the method was checked with S. aureus ATCC 25923.
Methods: The examination was effected by an agar diffusion test according to the method described in Example 13. As a test germ, the multiresistant S. aureus reference strain “Norddeutscher Stamm” (Smith Kline Beecham) was employed.
A general note: In agar diffusion tests the substance spreads into inoculated agar from a disc or well.

Experiment [3] relates to S. aureus strain ATCC 6538. Nature of the experiment: Agar diffusion test according to Burkhardt against S. aureus ATCC 6538. Type of experiment: cell-based. The procedure: as §1
In experiment [4] the test system is multiresistant coagulase-negative S. epidermidis strain 99847. Nature of the experiment: Agar diffusion test according to Burkhardt against multiresistant S. epidermidis. Type of experiment: cell-based. The procedure:
as §1
Methods: The examination was effected by an agar diffusion test according to the method described in Example 13. As a test germ, the multiresistant coagulase-negative S. epidermidis strain 99847 isolated from patient material was employed.

Regarding `CC1(C)SC2C(NC(=O)C(Nc3cc(O)c(C(=O)NCCO)cc3O)c3ccccc3)C(=O)N2C1C(=O)O` (stereo not shown) [Example 5], the “Antimicrobial activity of the coupling product (in words)” value in experiment [1] is “antimicrobially active”.

Consider `CC1=C(C(=O)O)N2C(=O)C(Nc3cc(O)c(C(=O)NCCO)cc3O)C2SC1` (stereo not shown) [Example 3], for which the Inhibition halo in experiment [2] (50 μg) was 20 mm; in experiment [2] (125 μg) it was 22 mm; in experiment [2] (250 μg), 24 mm; in experiment [3] (50 μg per test plate) it was 18 mm; in experiment [3] (125 μg per test plate), 22 mm; in experiment [3] (250 μg per test plate), 24 mm. Also, the Inhibition halo is reported as 24 mm in experiment [4] (125 μg) and 20 mm in experiment [4] (250 μg). Besides, the “Antimicrobial activity of the coupling product (in words)” value in experiment [1] is “antimicrobially active”.

`CC1(C)SC2C(Nc3cc(O)c(C(=O)NCCO)cc3O)C(=O)N2C1C(=O)O` (stereo not shown) [Example 1]: the Inhibition halo in experiment [2] (50 μg) is recorded as 16 mm; in experiment [2] (125 μg) it was 18 mm; in experiment [2] (250 μg), 20 mm; in experiment [3] (10 μg per test plate), 12 mm; in experiment [3] (50 μg per test plate), 18 mm; in experiment [3] (125 μg per test plate), 22 mm. The compound further came in with an Inhibition halo in experiment [3] (250 μg per test plate) of 24 mm. The “Antimicrobial activity of the coupling product (in words)” value in experiment [1] is reported as “antimicrobially active”.

For the compound `O=C(NCCO)c1cc(O)ccc1O` [2,5-Dihydroxy-N-(2-hydroxyethyl)benzamide, reference compound], the “Size of inhibition halo” value is reported as 14 mm in experiment [2] (0.05 mg/disc); 22 mm in experiment [2] (0.25 mg/disc); 22 mm in experiment [4] (starting materials, 0.25 mg/disc).

For `CC1(C)SC2C(NC(=O)C(Nc3c(O)ccc(O)c3C(=O)NCCO)c3ccc(O)cc3)C(=O)N2C1C(=O)O` (stereo not shown) [Example 4], the Inhibition halo in experiment [2] (10 μg) is on record as 10 mm; in experiment [2] (50 μg) it was 18 mm; in experiment [2] (125 μg) it was 22 mm; in experiment [2] (250 μg), 24 mm; in experiment [3] (10 μg per test plate), greater than 30 mm; in experiment [3] (50 μg per test plate), greater than 30 mm. Moreover, the Inhibition halo in experiment [3] (125 μg per test plate) was greater than 30 mm; in experiment [3] (250 μg per test plate) it was greater than 30 mm; in experiment [4] (50 μg) it was 18 mm; in experiment [4] (125 μg) it was 28 mm; in experiment [4] (250 μg) it was 30 mm. In experiment [3] (summary of Table 1), the “Antimicrobial activity (in words)” value is “highest antimicrobial activity”. Moreover, in experiment [1], the “Antimicrobial activity of the coupling product (in words)” value was “antimicrobially active”.

Source of the values: patent US20030180893A1, “Biotransformation of biologically active compounds made of various classes of chemical substance by means of laccase and manganese peroxidase enzymes” (priority 2000, published 2003).
